Reference: patent US12419858B2, “Salt of terphenyl compound” (Taiho Pharmaceutical Co., Ltd., priority 2019, dated 2025)

How the values were obtained:
in vivo = assay: in vivo
Method: Each drug was administered to the animal at a dose of 32 mg/5 mL/kg.

[1] = Moisture absorption/desorption test; conditions: 25° C.; for hygroscopicity / moisture absorption-desorption behaviour (in words): 5% RH to 95% RH and back; for weight change at maximum (moisture absorption/desorption): relative humidity from 5 to 95%
Method: Moisture absorption/desorption test was carried out on the following test conditions. A dedicated quartz holder was filled with about 10 mg of sample, and a weight of the sample at each humidity was measured and recorded in a continuous manner under the following conditions.

[2] = Solid stability test (accelerated test); conditions: for Purity, variation (Y) − (X) / Total mass of analogous substance, variation (Y) − (X): 4 weeks at 60° C. sealed versus before storage; for solid stability (in words): 4 weeks at 60° C.; for solid stability (in words) / Purity, 4 weeks after storage at 60° C. on sealed condition (Y) / Total mass of analogous substance, 4 weeks after storage at 60° C. on sealed condition (Y): sealed; for Purity, 4 weeks after storage at 60° C. on sealed condition (Y) / Total mass of analogous substance, 4 weeks after storage at 60° C. on sealed condition (Y) / Purity, before storage (X) / Total mass of analogous substance, before storage (X): HPLC; for Purity, 4 weeks after storage at 60° C. on sealed condition (Y) / Total mass of analogous substance, 4 weeks after storage at 60° C. on sealed condition (Y): 4 weeks at 60° C./ambient humidity
Method: Mass of analogous substance in the sample solution was measured by HPLC analysis.

Structure (SMILES) | Cmax (in vivo; rat, in vivo, 32 mg/kg) [nM] | Tmax (in vivo; rat, in vivo, 32 mg/kg) [h] | hygroscopicity / moisture absorption-desorption behaviour (in words) [1] | hygroscopicity / moisture absorption-desorption behaviour (in words) ([1]; listed as free form) | weight change at maximum (moisture absorption/desorption) [1] | Purity, variation (Y) − (X) [2] | Total mass of analogous substance, variation (Y) − (X) [2] | solid stability (in words) [2] | Purity, 4 weeks after storage at 60° C. on sealed condition (Y) [2] [%] | Total mass of analogous substance, 4 weeks after storage at 60° C. on sealed condition (Y) [2] [%] | Purity, before storage (X) [2] [%] | Total mass of analogous substance, before storage (X) [2] [%] | AUC (in vivo; rats, dose of 32 mg/5 mL/kg) [µM·h] | Cmax (in vivo; rats, dose of 32 mg/5 mL/kg) [nM] | Tmax (in vivo; rats, dose of 32 mg/5 mL/kg) [h] | solid stability (in words) ([2]; listed as benzoate)
CC(C)(O)Cc1ccc(-c2ccc(C(=O)N3CC[C@H](N)C3)cc2-c2ccc(C#N)c(F)c2)c(F)c1 [free form of Compound A, 4-[5-[(3S)-3-aminopyrrolidine-1-carbonyl]-2-[2-fluoro-4-(2-hydroxy-2-methyl-propyl)phenyl]phenyl]-2-fluoro-benzonitrile] | 2560 | 4 | had the characteristic of channel hydrate | characteristic of hygroscopicity | about +5.6 % w/w | −0.37% | +0.37% | poor solid stability | 98.15 | 1.85 | 98.52 | 1.48 | – | – | – | –
C/C=C/C=C/C(=O)O.CC(C)(O)Cc1ccc(-c2ccc(C(=O)N3CC[C@H](N)C3)cc2-c2ccc(C#N)c(F)c2)c(F)c1 [sorbic acid salt of Compound A, sorbic acid salt of 4-[5-[(3S)-3-aminopyrrolidine-1-carbonyl]-2-[2-fluoro-4-(2-hydroxy-2-methyl-propyl)phenyl]phenyl]-2-fluoro-benzonitrile] | – | – | less adsorptive and/or disorptive of moisture | – | +1.9 % w/w | −0.64% | +0.64% | stable | 97.99 | 2.01 | 98.63 | 1.37 | 11.64 | 2030 | 2.3 | –
CC(C)(O)Cc1ccc(-c2ccc(C(=O)N3CC[C@H](N)C3)cc2-c2ccc(C#N)c(F)c2)c(F)c1.O=C(O)c1ccccc1 [benzoic acid salt of Compound A, benzoic acid salt of 4-[5-[(3S)-3-aminopyrrolidine-1-carbonyl]-2-[2-fluoro-4-(2-hydroxy-2-methyl-propyl)phenyl]phenyl]-2-fluoro-benzonitrile] | – | – | less adsorptive and/or disorptive of moisture | – | +0.7 % w/w | +0.13% | −0.13% | almost no analogous substance was generated | 98.06 | 1.94 | 97.93 | 2.07 | – | 2680 | 2.7 | stable
